Experimental findings from patent US20230295149A1, “MONOBACTAM COMPOUNDS, THEIR PREPARATION AND USE AS ANTIBACTERIAL AGENTS” (NINGXIA ACADEMY OF AGRICULTURE AND FORESTRY SCIENCES, priority 2020, published 2023) are described below.

For orientation: MIC means the lowest concentration that inhibits growth of the organism.

Common to all, as to test: MIC determination, broth microdilution
Common to all, as to assay type: cell-based
On the technique in general: Broth dilution looks for growth in wells or tubes with falling amounts of substance.

One test deals with P. aeruginosa 9027. The note with it: Pseudomonas aeruginosa, 37° C., 18-24 hours, read-out: Strain 10 MIC. As for the experimental part:
(§1) Compounds of this invention were tested for antimicrobial activity by determining minimum inhibitory concentrations (MICs, in μg/mL) using the broth microdilution method according to the guidelines of the Clinical Laboratories and Standards Institute (“Methods for Dilution Antimicrobial Susceptibility Tests for Bacteria that Grow Aerobically”, Approved standard, 7th ed., Clinical and Laboratory Standards Institute (CLSI) Document M7-A8, Wayne, Pa., USA, 2009.). Test compounds were dissolved in DMSO. The compounds were then diluted in microbial growth medium (Mueller Hinton Broth II, cation adjusted) resulting in a final concentration range of 0.063-64 μg/mL in serial two-fold dilution. In all cases the final DMSO concentration was less than 0.5%. Bacteria were added to 96-well microtitre plates containing the two-fold dilutions of the compounds; the final cell density was approximately 5×10^5 colony forming units/mL (CFU/mL). Plates were incubated at 37° C. for 18-24 hours and read visually. The MIC, i.e. the lowest concentration of the test compound that inhibited visible growth of the bacteria, was recorded. The same assay conditions were used when the compounds of this invention were tested in combination with—lactamase inhibitors. While the compounds of this invention were serially diluted as described above, a constant concentration of the inhibitor of 4 mg/L was used. Bacterial strains that were used to evaluate the antimicrobial activity using the MIC determination included but were not limited to E. coli clinical isolate, E. coli 8739, K. pneumoniae clinical isolate, K. pneumoniae 700603, E. cloacae clinical isolate, E. cloacae 700323, A. baumannii clinical isolate, A. baumannii 19606, P. aeruginosa clinical isolate, P. aeruginosa 9027.

The test system of test [1] is A. baumannii clinical isolate. The note with it: Acinetobacter baumannii, 37° C., 18-24 hours, read-out: Strain 7 MIC. As for the experimental part:
as §1

The test system of the next test is E. coli clinical isolate. The settings on record: Escherichia coli, 37° C., 18-24 hours, read-out: Strain 1 MIC. As for the experimental part:
as §1

The subject of test [2] is K. pneumoniae clinical isolate. The settings on record: Klebsiella pneumoniae, 37° C., 18-24 hours, read-out: Strain 3 MIC. Here is the method: as §1
For another test, the system named is A. baumannii 19606. The note with it: Acinetobacter baumannii, 37° C., 18-24 hours, read-out: Strain8 MIC. Here is the method: as §1
For another test, the system named is E. coli 8739. The note with it: Escherichia coli, 37° C., 18-24 hours, read-out: Strain 2 MIC. Here is the method:
as §1

Test [3] concerns P. aeruginosa clinical isolate. The note with it: Pseudomonas aeruginosa, 37° C., 18-24 hours, read-out: Strain 9 MIC. Here is the method:
as §1

The test system of test [4] is E. cloacae clinical isolate. The note with it: Enterobacter cloacae, 37° C., 18-24 hours, read-out: Strain5 MIC. Here is the method: as §1
Another test concerns E. cloacae 700323. The settings on record: Enterobacter cloacae, 37° C., 18-24 hours, read-out: Strain 6 MIC. Here is the method: as §1
The test system of another test is K. pneumoniae 700603. The note with it: Klebsiella pneumoniae, 37° C., 18-24 hours, read-out: Strain 4 MIC. As for the experimental part:
as §1

`C[C@H]1[C@H](NC(=O)/C(=N\O[C@@H](COc2ccc(C(=N)N[C@H]3CCCNC3)cc2)C(=O)O)c2nc(N)sc2Cl)C(=O)N1S(=O)(=O)O` [Example 9, (S)-2-((((Z)-1-(2-Amino-5-chlorothiazol-4-yl)-2-(((2S,3S)-2-methyl-4-oxo-1-sulfoazetidin-3-yl)amino)-2-oxoethylidene)amino)oxy)-3-(4-(N—((S)-piperidin-3-yl)carbamimidoyl)phenoxy)propanoic acid]: the MIC in the test with P. aeruginosa 9027 amounted to 1 µg/mL; in [1], 32 µg/mL; in the test on E. coli clinical isolate, 1 µg/mL; in test [2], 32 µg/mL; in the test with A. baumannii 19606 it was 16 µg/mL; in the test on E. coli 8739, 0.5 µg/mL. Further, the MIC in test [3] was found to be 16 µg/mL; in test [4], 64 µg/mL; with E. cloacae 700323, 32 µg/mL; with K. pneumoniae 700603, 64 µg/mL.
As for `CC1(C)[C@H](NC(=O)/C(=N\O[C@@H](COc2ccc(C(=N)N[C@@H]3CCNC3)cc2)C(=O)O)c2nc(N)sc2Cl)C(=O)N1OS(=O)(=O)O` [Example 10, (S)-2-((((Z)-1-(2-Amino-5-chlorothiazol-4-yl)-2-(((S)-2,2-dimethyl-4-oxo-1-(sulfooxy)azetidin-3-yl)amino)-2-oxoethylidene)amino)oxy)-3-(4-(N—((R)-pyrrolidin-3-yl)carbamimidoyl)phenoxy)propanoic acid], the MIC with P. aeruginosa 9027 is 2 µg/mL; in test [1] it was 8 µg/mL; in the test on E. coli clinical isolate, 1 µg/mL; in [2], 1 µg/mL; in the test with A. baumannii 19606, 8 µg/mL; in the test with E. coli 8739 it was 0.25 µg/mL. The MIC in test [3] turned out to be 2 µg/mL; in test [4] it was 2 µg/mL; in the test with E. cloacae 700323, 4 µg/mL; with K. pneumoniae 700603, 1 µg/mL.
Turning to `CC1(C)[C@H](NC(=O)/C(=N\O[C@@H](COc2ccc(C(=N)N[C@H]3CCCNC3)cc2)C(=O)O)c2nc(N)sc2Cl)C(=O)N1OS(=O)(=O)O` [Example 11, (S)-2-((((Z)-1-(2-Amino-5-chlorothiazol-4-yl)-2-(((S)-2,2-dimethyl-4-oxo-1-(sulfooxy)azetidin-3-yl)amino)-2-oxoethylidene)amino)oxy)-3-(4-(N—((S)-piperidin-3-yl)carbamimidoyl)phenoxy)propanoic acid], the MIC in the test on P. aeruginosa 9027 turned out to be 2 µg/mL; in test [1], 16 µg/mL; in the test on E. coli clinical isolate, 0.5 µg/mL; in [2], 32 µg/mL; in the test on A. baumannii 19606 it was 32 µg/mL; in the test on E. coli 8739 it was 0.5 µg/mL. The minimal inhibitory concentration (MIC) in test [3] came to 4 µg/mL; in test [4], 32 µg/mL; in the test with E. cloacae 700323 it was 64 µg/mL; in the test with K. pneumoniae 700603 it was 64 µg/mL.
For the compound `CC1(C)[C@H](NC(=O)/C(=N\O[C@@H](COc2ccc(C(=N)N[C@@H]3CCNC3)cc2)C(=O)O)c2nsc(N)n2)C(=O)N1OS(=O)(=O)O` [Example 12, (S)-2-((((Z)-1-(5-Amino-1,2,4-thiadiazol-3-yl)-2-(((S)-2,2-dimethyl-4-oxo-1-(sulfooxy)azetidin-3-yl)amino)-2-oxoethylidene)amino)oxy)-3-(4-(N—((R)-pyrrolidin-3-yl)carbamimidoyl)phenoxy)propanoic acid], the MIC in the test on P. aeruginosa 9027 came to 2 µg/mL; in test [1], 16 µg/mL; in the test with E. coli clinical isolate, 8 µg/mL; in test [2], 4 µg/mL; in the test on A. baumannii 19606 it was 8 µg/mL; in the test on E. coli 8739, 1 µg/mL. Besides, the MIC in test [3] stood at 2 µg/mL; in test [4], 8 µg/mL; in the test on E. cloacae 700323, 8 µg/mL; in the test with K. pneumoniae 700603, 8 µg/mL.
